Molecular target: T1, horseradish peroxidase (HRP) (Armoracia rusticana, UniProt P00433)
T1 sequence (P00433 31-338 limits assumed): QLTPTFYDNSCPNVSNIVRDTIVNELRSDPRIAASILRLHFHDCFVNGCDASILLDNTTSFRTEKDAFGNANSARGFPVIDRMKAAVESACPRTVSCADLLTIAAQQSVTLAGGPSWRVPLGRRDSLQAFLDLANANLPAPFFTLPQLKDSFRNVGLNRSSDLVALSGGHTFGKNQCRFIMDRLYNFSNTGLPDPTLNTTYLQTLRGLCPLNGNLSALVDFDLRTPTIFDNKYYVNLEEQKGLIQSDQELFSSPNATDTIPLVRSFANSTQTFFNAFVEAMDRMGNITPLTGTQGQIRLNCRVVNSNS
Assay: Chemiluminescent detection of HRP: reaction of compound with peroxidase and peroxide
Type: biochemical
Conditions: for time to maximum chemiluminescence intensity: 0.01 M tris pH 8.0, 0.5 mM urea peroxide, 0.1 mM p-phenylphenol, 1 mM EDTA, 0.025% Tween 20, 5×10^−5 M acridan, HRP 3.5×10^−16 to 1.4×10^−15 moles
Protocol: FIG. 1 is a graph relating the amount of HRP to the chemiluminescence intensity at 15 min emitted by 100 μL of a reagent described in Example 20 containing acridan phosphate 5 triggered at room temperature. Chemiluminescence emission was initiated by addition of 10 μL of solutions of HRP containing between 1.4×10^−15 and 1.4×10^−19 moles of enzyme to 100 μL of the reagent comprising 0.055 M tris buffer, pH 8.6, 0.25 mM urea peroxide, 0.05 mM p-phenylphenol, 0.5 mM EDTA, 0.0125% Tween 20 and 3.3×10^−4 M acridan 5 in the wells of a black microplate. The term S-B refers to the chemiluminescence signal (S) in Relative Light Units (RLU) in the presence of HRP corrected for background chemiluminescence (B) in the absence of HRP.
FIG. 2 is a graph relating the amount of HRP to the chemiluminescence intensity at 15 min emitted by 100 μL of a reagent described in Example 21 containing acridan phosphate 13 triggered at room temperature. Chemiluminescence emission was initiated by addition of 10 μL of solutions of HRP containing between 1.4×10^−15 and 1.4×10^−19 moles of enzyme to 100 μL of a reagent comprising 0.055 M tris buffer, pH 8.6, 0.25 mM urea peroxide, 0.05 mM p-phenylphenol, 0.5 mM EDTA, 0.0125% Tween 20 and 3.3×10^−4 M acridan 13 in a black microplate.
FIG. 3 is a graph showing the time profile of chemiluminescence resulting from reaction of 1.4×10^−15 moles of HRP at 25° C. with 100 μL of the reagent containing acridan 5 described in Example 20.
FIG. 4 is a graph relating the amount of HRP to the maximum chemiluminescence intensity at 2 min emitted by 100 μL of a reagent containing acridan 37 triggered at room temperature. Chemiluminescence emission was initiated by addition of 10 μL of solutions of HRP containing between 1.4×10^−14 to 1.4×10^−19 moles to 100 μL of reagent composition comprising 0.01 M tris buffer, pH 8.0, 0.5 mM urea peroxide, 0.1 mM p-phenylphenol, 1 mM EDTA, 0.025% Tween 20 and 5×10^−5 M acridan 37.
FIG. 5 is a graph showing the time profile of chemiluminescence resulting from reaction of 1.4×10^−15 moles of HRP at 25° C. with 40 μL of a reagent comprising 0.01 M tris buffer, pH 8.0, 0.5 mM urea peroxide, 0.1 mM p-phenylphenol, 1 mM EDTA, 0.025% Tween 20 and 5×10^−5 M acridan 38.
FIG. 6 is a graph relating the amount of HRP to the maximum chemiluminescence intensity at 30 min emitted by 100 μL of a reagent containing acridan 39 triggered at room temperature. Chemiluminescence emission was initiated by addition of 10 μL of solutions of HRP containing between 1.4×10^−15 to 1.4×10^−20 moles to 100 μL of reagent composition comprising 0.01 M tris buffer, pH 8.0, 0.5 mM urea peroxide, 0.1 mM p-phenylphenol, 1 mM EDTA, 0.025% Tween 20 and 5×10^−5 M acridan 39.
FIG. 7 is a graph showing the time profile of chemiluminescence resulting from reaction of 3.5×10^−16 moles of HRP at 25° C. with 100 μL of a reagent comprising 0.01 M tris buffer, pH 8.0, 0.5 mM urea peroxide, 0.1 mM p-phenylphenol, 1 mM EDTA, 0.025% Tween 20 and 5×10^−5 M acridan 50.
FIG. 8 is a graph relating the amount of HRP to the maximum chemiluminescence intensity at 15 min emitted by 100 μL of a reagent containing acridan 43 triggered at room temperature. Chemiluminescence emission was initiated by addition of 10 μL of solutions of HRP containing between 1.4×10^−15 to 1.4×10^−19 moles to 100 μL of a reagent composition comprising 0.055 M tris buffer, pH 8.6, 0.25 mM urea peroxide, 0.05 mM p-phenylphenol, 0.5 mM EDTA, 0.0125% Tween 20, 1 mM CTAB and 6.6×10^−4 M acridan 43.
Reagent compositions comprising 0.055 M tris buffer, pH 8.6, 0.25 mM urea peroxide, 0.05 mM p-phenylphenol, 0.5 mM EDTA, 0.0125% Tween 20, 1 mM CTAB and 3.3×10^−4 M compound 46 alone or with 50 μM DBA were tested for production of chemiluminescence by reacting a 100 μL aliquot with 3.5×10^−15 moles of HRP. […]

SMILES: CCOP(=O)(OCC)OC(Oc1ccccc1)=C1c2ccccc2N(C)c2ccccc21 [Compound 37]
- production of chemiluminescence on reaction with a peroxidase and a peroxide: Light production ensued upon mixing

SMILES: CCOP(=O)(OCC)OC(Sc1ccccc1)=C1c2ccccc2N(C)c2ccccc21 [Compound 38]
- production of chemiluminescence on reaction with a peroxidase and a peroxide: Light production ensued upon mixing
- time to maximum chemiluminescence intensity: 1 min

SMILES: COC(Sc1ccccc1)=C1c2ccccc2N(C)c2ccccc21 [Compound 50]
- production of chemiluminescence on reaction with a peroxidase and a peroxide: Light production ensued upon mixing
- time to maximum chemiluminescence intensity: 7 min

SMILES: CC(=O)OC(Sc1ccccc1)=C1c2ccccc2N(C)c2ccccc21 [Compound 40]
- production of chemiluminescence on reaction with a peroxidase and a peroxide: Light production ensued upon mixing
- time to maximum chemiluminescence intensity: 7 min

SMILES: CC(=O)OC(Oc1ccccc1)=C1c2ccccc2N(C)c2ccccc21 [Compound 39]
- production of chemiluminescence on reaction with a peroxidase and a peroxide: Light production ensued upon mixing
- time to maximum chemiluminescence intensity: 30 min

SMILES: C/C(=C(/OP(=O)([O-])[O-])Sc1ccccc1)c1ccc2cc([O-])ccc2c1.[Na+].[Na+].[Na+] [Compound 43]
- increase of light intensity when CTAB was included in the reaction mixture (reaction with a peroxidase and a peroxide, with vs without CTAB): increased more than ten-fold
